The values below come from ChEMBL document CHEMBL1133008, “AMP deaminase inhibitors. 2. Initial discovery of a non-nucleotide transition-state inhibitor series” (J Med Chem, 2000).

As usually defined, the Ki is the equilibrium dissociation constant of an inhibitor or competing ligand from its target. Read a high Ki as weaker binding.

This assay concerns the target T1, Adenosine deaminase (Bos taurus, UniProt P56658).
T1 sequence (P56658 whole entry): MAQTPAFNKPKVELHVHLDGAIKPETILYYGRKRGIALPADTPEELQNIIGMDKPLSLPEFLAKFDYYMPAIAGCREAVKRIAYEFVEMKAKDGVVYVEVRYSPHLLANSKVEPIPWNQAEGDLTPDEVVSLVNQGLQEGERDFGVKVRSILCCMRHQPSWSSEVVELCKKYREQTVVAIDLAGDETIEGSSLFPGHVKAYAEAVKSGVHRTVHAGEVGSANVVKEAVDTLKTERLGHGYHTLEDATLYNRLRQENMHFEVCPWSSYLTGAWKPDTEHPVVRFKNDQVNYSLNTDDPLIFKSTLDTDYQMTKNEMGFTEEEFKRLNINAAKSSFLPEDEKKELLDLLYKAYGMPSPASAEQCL
Description: Evaluated for the inhibition of calf intestinal Adenosine deaminase (ADA).
Molecule `CCOC(=O)C(CCCCn1cnc2c1NC=NCC2O)c1cccc(Br)c1` (centres undefined) had a Ki greater than 7.5 µM.
Molecule `N#CCCCn1cnc2c1N=CNCC2O` (centres undefined) returned an inhibition constant Ki greater than 7.5 µM.
As for `OCCCCn1cnc2c1N=CNCC2O` (centres undefined), the Ki was found to be 6.3 µM.
Turning to `CC(CCCCn1cnc2c1N=CNCC2O)(Cc1cccc(Br)c1)C(=O)O` (stereo in doubt; 7v), the Ki is greater than 7.5 µM.
Then `CCCCn1cnc2c1NC=NCC2O` (centres undefined), with 17 µM; and `N#CCCCCCCn1cnc2c1NC=NCC2O` (centres undefined), with 1 µM.
Take `O=C(O)C1(CCCCn2cnc3c2N=CNCC3O)Cc2ccccc2C1` (centres undefined): the Ki is greater than 7.5 µM.
`O=C(O)C(CCCCn1cnc2c1NC=NCC2O)Cc1ccccc1` (centres undefined) registered an inhibitory constant (Ki) greater than 1000 µM.
For the molecule `O=C(O)CCCCn1cnc2c1NC=NCC2O` (centres undefined), the inhibition constant (Ki) is greater than 7.5 µM.
In turn, `O=C(O)C(CCCCn1cnc2c1N=CNCC2O)Cc1ccccc1Br` (centres undefined) showed a Ki greater than 7.5 µM.
As for `CCOC(=O)C(CCCCn1cnc2c1NC=NCC2O)Cc1cccc(Br)c1` (centres undefined), the figure is greater than 7.5 µM; as for `CCOC(=O)CCCCCn1cnc2c1NC=NCC2O` (centres undefined), 3 µM; as for `NC(=O)CCCCCn1cnc2c1NC=NCC2O` (centres undefined), 5.9 µM.
`O=C(O)CCCCCCn1cnc2c1N=CNCC2O` (centres undefined) displayed a Ki of 250 µM.
In turn, `CCCCCCCCn1cnc2c1N=CNCC2O` (centres undefined) had an inhibitory constant (Ki) of 0.45 µM.
Then `O=C(O)C(CCCCn1cnc2c1NC=NCC2O)Cc1ccc(Cl)cc1` (centres undefined), with greater than 7.5 µM; and `CCOC(=O)C(CCCCn1cnc2c1NC=NCC2O)c1ccccc1` (centres undefined), with greater than 7.5 µM.
As for `OC1CN=CNc2c1ncn2CCCCCc1nnn[nH]1` (centres undefined), the figure is greater than 7.5 µM.
As for `CCOC(=O)C(C)(CCCCn1cnc2c1NC=NCC2O)Cc1cccc(Br)c1` (centres undefined), the figure is greater than 7.5 µM; as for `OCCCn1cnc2c1N=CNCC2O` (centres undefined), greater than 7.5 µM; as for `O=C(O)CCCOCn1cnc2c1NC=NCC2O` (centres undefined), greater than 500 µM.
Molecule `CC(C)(CCCCn1cnc2c1NC=NCC2O)C(=O)O` (centres undefined) came in with a Ki greater than 7.5 µM.
`O=C(O)CCCCCn1cnc2c1N=CNCC2O` (centres undefined) gave a Ki of 280 µM.
The molecule `O=P(O)(O)CCCCCn1cnc2c1NC=NCC2O` (centres undefined) yielded a Ki greater than 500 µM.
`COP(=O)(O)CCCCCCn1cnc2c1NC=NCC2O` (centres undefined) showed a Ki greater than 500 µM.
Regarding `O=C(O)CCCCCCCn1cnc2c1NC=NCC2O` (centres undefined), the Ki is greater than 7.5 µM.
The molecule `CC(CCCCn1cnc2c1N=CNCC2O)(Cc1cccc(Br)c1)C(=O)O` (stereo in doubt; 7w) registered an inhibition constant (Ki) greater than 7.5 µM.
`O=C(O)C(CCCCn1cnc2c1N=CNCC2O)c1ccccc1` (centres undefined) registered an inhibition constant (Ki) greater than 7.5 µM.
As for `O=C(O)C(CCCCn1cnc2c1NC=NCC2O)Cc1ccc(Br)cc1` (centres undefined), the figure is greater than 7.5 µM; as for `OC1CN=CNc2c1ncn2Cc1ccccc1` (centres undefined), 6 µM; as for `COC(=O)CCCCCCCn1cnc2c1N=CNCC2O` (centres undefined), 0.95 µM.
As for `O=C(O)C(CCCCn1cnc2c1NC=NCC2O)Cc1cccc(Br)c1` (centres undefined), the figure is greater than 7.5 µM.
As for `OCCn1cnc2c1NC=NCC2O` (centres undefined), the figure is greater than 7.5 µM; as for `O=C(O)C(CCCCn1cnc2c1NC=NCC2O)(c1ccccc1)c1ccccc1` (centres undefined), greater than 7.5 µM.
Turning to `OCCCCCCn1cnc2c1N=CNCC2O` (centres undefined), affinity was put at a Ki of 3.6 µM.
Molecule `CCn1cnc2c1NC=NCC2O` (centres undefined) yielded an inhibitory constant (Ki) of 28 µM.
With `O=P(O)(O)CCCCCCn1cnc2c1N=CNCC2O` (centres undefined), the Ki is greater than 7.5 µM.
As for `OCCCCCn1cnc2c1NC=NCC2O` (centres undefined), the Ki worked out at 4.7 µM.
In turn, `CCCn1cnc2c1NC=NCC2O` (centres undefined) returned a Ki greater than 20 µM.
In the case of `COC(=O)CCCCn1cnc2c1N=CNCC2O` (centres undefined), the Ki was 3.5 µM.
Consider `N#CCCCCn1cnc2c1N=CNCC2O` (centres undefined), for which affinity was put at a Ki of 14 µM.
On to `O=C(O)C(CCCCn1cnc2c1N=CNCC2O)c1cccc(Br)c1` (centres undefined), for which the Ki was greater than 7.5 µM.
As to `CC(C)CC(CCCCn1cnc2c1NC=NCC2O)(CC(C)C)C(=O)O` (centres undefined), the Ki came out at 120 µM.
As for `O=C(O)C(CCCCn1cnc2c1N=CNCC2O)Cc1cccc(Cl)c1` (centres undefined), the inhibitory constant (Ki) was greater than 7.5 µM.
